From article PMC7556816, “Structural and mechanistic analysis of ATPase inhibitors targeting mycobacterial DNA gyrase” (Journal of Antimicrobial Chemotherapy, 2020)

Tested on: M. tuberculosis gyrase, GyrB Arg141 mutants
Format: biochemical, Mycobacterium tuberculosis

Structure (SMILES) | inhibition of supercoiling of Arg141 mutant gyrase
CNc1cc(F)cc2c1[nH]c1nc(Oc3cnc(C)nc3)nc(N3C[C@@H]4[C@@H](N)[C@@H]4C3)c12 [Redx03863] | susceptible to inhibition
CO[C@@H]1[C@@H](OC(N)=O)[C@@H](O)[C@H](Oc2ccc3c(O)c(NC(=O)c4ccc(O)c(CC=C(C)C)c4)c(=O)oc3c2C)OC1(C)C [novobiocin, reference compound] | at least partially inhibited
